According to US9650371B2, “Sulfur-containing heterocyclic derivative having beta secretase inhibitory activity” (Shionogi & Co., Ltd., priority 2008, dated 2017):

Target: human ether-a-go-go related gene (hERG) channel (Homo sapiens (Human), UniProt Q12809)
Experiment: hERG test
Type: cell-based
Settings: HEK293 cells expressing hERG, whole cell patch clamp, 10 minutes
From the text: For the purpose of assessing risk of an electrocardiogram QT interval prolongation, effects on delayed rectifier K+ current (IKr), which plays an important role in the ventricular repolarization process, was studied using HEK293 cells expressing human ether-a-go-go related gene (hERG) channel.
After a cell was retained at a membrane potential of −80 mV by whole cell patch clamp method using an automated patch clamp system (PatchXpress 7000A, Axon Instruments Inc.), IKr induced by depolarization pulse stimulation at +50 mV for 2 seconds and, further, repolarization pulse stimulation at −50 mV for 2 seconds was recorded. […] From the recording IKr, an absolute value of the tail peak current was measured based on the current value at the resting membrane potential using an analysis software (DataXpress ver.1, Molecular Devices Corporation). Further, the % inhibition relative to the tail peak current before application of the test substance was calculated, and compared with the vehicle-applied group (0.1% dimethyl sulfoxide solution) to assess influence of the test substance on IKr.

Chain of human ether-a-go-go related gene (hERG) channel (Q12809 whole entry): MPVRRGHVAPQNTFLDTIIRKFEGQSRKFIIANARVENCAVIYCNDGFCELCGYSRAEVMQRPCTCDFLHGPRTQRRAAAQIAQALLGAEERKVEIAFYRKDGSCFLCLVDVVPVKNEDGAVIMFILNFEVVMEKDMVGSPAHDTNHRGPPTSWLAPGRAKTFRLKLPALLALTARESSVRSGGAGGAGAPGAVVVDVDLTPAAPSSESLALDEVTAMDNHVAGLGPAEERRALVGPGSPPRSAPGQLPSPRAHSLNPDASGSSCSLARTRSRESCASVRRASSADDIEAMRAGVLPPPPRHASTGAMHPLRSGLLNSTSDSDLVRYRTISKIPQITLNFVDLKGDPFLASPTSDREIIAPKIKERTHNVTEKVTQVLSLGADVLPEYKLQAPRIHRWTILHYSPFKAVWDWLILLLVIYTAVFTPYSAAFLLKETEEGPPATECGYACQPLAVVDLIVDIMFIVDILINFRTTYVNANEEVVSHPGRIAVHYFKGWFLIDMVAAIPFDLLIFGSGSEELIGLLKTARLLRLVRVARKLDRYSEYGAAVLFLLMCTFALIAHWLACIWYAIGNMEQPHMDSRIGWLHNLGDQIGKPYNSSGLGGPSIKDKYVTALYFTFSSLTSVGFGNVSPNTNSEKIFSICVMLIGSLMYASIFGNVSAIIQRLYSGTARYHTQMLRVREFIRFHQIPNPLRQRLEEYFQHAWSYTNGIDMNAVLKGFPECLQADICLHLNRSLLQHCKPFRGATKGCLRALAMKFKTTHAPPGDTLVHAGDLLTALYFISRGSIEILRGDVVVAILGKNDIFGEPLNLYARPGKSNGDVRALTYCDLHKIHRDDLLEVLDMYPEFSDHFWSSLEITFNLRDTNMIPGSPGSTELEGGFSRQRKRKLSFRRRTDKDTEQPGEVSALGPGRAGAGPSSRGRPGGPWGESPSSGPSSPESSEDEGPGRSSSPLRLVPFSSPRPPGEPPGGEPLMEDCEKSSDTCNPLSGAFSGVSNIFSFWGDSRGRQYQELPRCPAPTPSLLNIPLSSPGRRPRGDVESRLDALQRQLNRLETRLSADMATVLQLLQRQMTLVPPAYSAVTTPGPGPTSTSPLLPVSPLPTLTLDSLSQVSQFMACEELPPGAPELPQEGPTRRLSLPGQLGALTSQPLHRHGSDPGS

Row | SMILES | % inhibition of tail peak current (IKr) [%]
1 | C=C1C[C@@](C)(c2cc(NC(=O)c3cnc(OC)cn3)cnc2C)N=C(N)S1 [Compound 102] | 2.3
2 | CNC(=O)c1ccc(-c2ccc(F)c([C@]3(C)C=CSC(N)=N3)c2)cn1 [Compound 92] | 7.9
